Laboratory results: patent US9526785B2, “Pharmaceuticals for oral delivery” (Enteris BioPharma, Inc., priority 2013, dated 2016)
Read-outs that look alike come from different tables or passages of the source.

Test: Tigecycline plasma PK and % F after PO enteric-coated capsule in dogs
Format: in vivo, Beagle dogs
Conditions: female, beagle, dog, plasma, po; for concentration at 2 hr / concentration at 3 hr / concentration at 4 hr / concentration at 5 hr / concentration at 6 hr / concentration at 8 hr / concentration at 10 hr / concentration at 24 hr: PO 30 mg unformulated enteric-coated capsule; for concentration at 0 min: Time (min) 0.0; for concentration at 0.3 min: Time (min) 0.3; for concentration at 24 min: Time (min) 24.0; for bioavailability: read-out: % F
Procedure: Adult beagle dogs weighing approximately 9 to 15 kg were used in the study. […] Room temperature was set to be maintained between approximately 20±5° C. Relative humidity was monitored but not controlled.
TEKLAD™ Certified Canine Diet was provided once daily in amounts (˜400 grams) appropriate for the size and age of the animals. Tap water was available ad libitum via automatic watering device or water bowls.
Oral dosing of enteric-coated capsules was accomplished by administering them to the back of the dog's mouth, followed by a chase of 5 mL water to ensure swallowing.
Water was provided ad libitum. […] Subsequently, each group of animals was dosed based on the protocol, i.e. either IV, or PO by capsule.
Minocycline (VWR international) was used as an internal standard. Sample processing/clean-up of plasma samples was carried out offline by protein precipitation with acidified acetonitrile using 0.5% trifluoroacetic acid (TFA).
The HPLC system consisted of Shimadzu SIL-HTc HPLC system equipped with dual Shimadzu LC-10ADvp isopumps, a Shimadzu CTO-10ASvp column temperature controller and a Shimadzu SPD-10Avp variable wavelength detector. […] Mobile phase A consisted of 23 mM phosphate buffer pH 2.5 with 4 mM 1-octanesulfonic acid, while mobile phase B consisting of 90% acetonitrile, 10% water, with 2 mM 1-octanesulfonic acid. […] The total runtime was 18 minutes per sample. The mobile phase flow rate was 1.2 mL/min. Detection was performed using the SPD-10Avp variable wavelength detector set at 350 nm, with a sensitivity of 0.001 aufs.
The samples were then centrifuged under refrigeration at 13 k rpm for 5 minutes. The supernatant was taken and the liquid removed to dryness under nitrogen in a turbovap. The dried extract was reconstituted in 60 μL of mobile phase A and the suspension was further centrifuged at 5 k rpm for 5 minutes to pellet any insoluble matter. The resulting supernatant was then injected onto the LC.
The unknown concentration in dog plasma samples was determined by interpolation of the peak area ratios of analyte:internal standard versus the ratio of their nominal concentrations into the regression line obtained from calibration standards spiked in pooled dog plasma. No regression weighting was used for the calculations. […] The calibration curve covered the range of 0.05 μg/mL to 5 μg/mL. […]
The capsules were enterically coated using a standard preclinical protocol to 10% weight gain. Two studies were conducted.

[1] = 30 mg, Tigecycline Plasma Concentration, SC430, individual dogs
[2] = 30 mg, Tigecycline Plasma Concentration, SC430, mean
[3] = 30 mg, Tigecycline Plasma Concentration, PO 30 mg enteric-coated capsule with 500 mg CA and 100 mg LLC, SC430, individual dogs
[4] = 30 mg, Tigecycline Plasma Concentration, PO 30 mg enteric-coated capsule with 500 mg CA and 100 mg LLC, SC430, mean

CN(C)c1cc(NC(=O)CNC(C)(C)C)c(O)c2c1C[C@H]1C[C@H]3[C@H](N(C)C)C(O)=C(C(N)=O)C(=O)[C@@]3(O)C(O)=C1C2=O [Tigecycline]
concentration at 2 hr [1]: 0 ng/mL
concentration at 2 hr [2]: 0 ng/mL
concentration at 3 hr [1]: 0 ng/mL
concentration at 3 hr [2]: 0 ng/mL
concentration at 4 hr [1]: 0 ng/mL
concentration at 4 hr [2]: 0 ng/mL
concentration at 5 hr [1]: 0 ng/mL
concentration at 5 hr [2]: 0 ng/mL
concentration at 6 hr [1]: 0 ng/mL
concentration at 6 hr [2]: 0 ng/mL
concentration at 8 hr [1]: 0 ng/mL
concentration at 8 hr [2]: 0 ng/mL
concentration at 10 hr [1]: 0 ng/mL
concentration at 10 hr [2]: 0 ng/mL
concentration at 0 min [3]: 0 ng/mL
concentration at 0 min [4]: 0 ng/mL
concentration at 0.3 min [3]: 0 ng/mL
concentration at 0.3 min [4]: 0 ng/mL
concentration at 0.7 min (30 mg, Tigecycline Plasma Concentration, Time (min) 0.7, PO 30 mg enteric-coated capsule with 500 mg CA and 100 mg LLC, SC430, mean): 26.4 ng/mL
concentration at 1 min (30 mg, Tigecycline Plasma Concentration, Time (min) 1.0, PO 30 mg enteric-coated capsule with 500 mg CA and 100 mg LLC, SC430, mean): 49 ng/mL
concentration at […] (30 mg, Tigecycline Plasma Concentration, Time (min) 1.3, PO 30 mg enteric-coated capsule with 500 mg CA and 100 mg LLC, SC430, mean): 51.2 ng/mL
concentration at […] (30 mg, Tigecycline Plasma Concentration, Time (min) 1.7, PO 30 mg enteric-coated capsule with 500 mg CA and 100 mg LLC, SC430, mean): 63.6 ng/mL
concentration at 2 min (30 mg, Tigecycline Plasma Concentration, Time (min) 2.0, PO 30 mg enteric-coated capsule with 500 mg CA and 100 mg LLC, SC430, mean): 83.5 ng/mL
concentration at […] (30 mg, Tigecycline Plasma Concentration, Time (min) 2.3, PO 30 mg enteric-coated capsule with 500 mg CA and 100 mg LLC, SC430, mean): 72.1 ng/mL
concentration at […] (30 mg, Tigecycline Plasma Concentration, Time (min) 2.7, PO 30 mg enteric-coated capsule with 500 mg CA and 100 mg LLC, SC430, mean): 59.1 ng/mL
concentration at 3 min (30 mg, Tigecycline Plasma Concentration, Time (min) 3.0, PO 30 mg enteric-coated capsule with 500 mg CA and 100 mg LLC, SC430, mean): 49.9 ng/mL
concentration at […] (30 mg, Tigecycline Plasma Concentration, Time (min) 3.3, PO 30 mg enteric-coated capsule with 500 mg CA and 100 mg LLC, SC430, mean): 42.4 ng/mL
concentration at […] (30 mg, Tigecycline Plasma Concentration, Time (min) 3.7, PO 30 mg enteric-coated capsule with 500 mg CA and 100 mg LLC, SC430, mean): 40.6 ng/mL
concentration at 4 min (30 mg, Tigecycline Plasma Concentration, Time (min) 4.0, PO 30 mg enteric-coated capsule with 500 mg CA and 100 mg LLC, SC430, mean): 36.6 ng/mL
concentration at […] (30 mg, Tigecycline Plasma Concentration, Time (min) 4.5, PO 30 mg enteric-coated capsule with 500 mg CA and 100 mg LLC, SC430, mean): 33.5 ng/mL
concentration at 5 min (30 mg, Tigecycline Plasma Concentration, Time (min) 5.0, PO 30 mg enteric-coated capsule with 500 mg CA and 100 mg LLC, SC430, mean): 31.8 ng/mL
concentration at […] (30 mg, Tigecycline Plasma Concentration, Time (min) 5.5, PO 30 mg enteric-coated capsule with 500 mg CA and 100 mg LLC, SC430, mean): 37.9 ng/mL
concentration at 6 min (30 mg, Tigecycline Plasma Concentration, Time (min) 6.0, PO 30 mg enteric-coated capsule with 500 mg CA and 100 mg LLC, SC430, mean): 21.2 ng/mL
concentration at 8 min (30 mg, Tigecycline Plasma Concentration, Time (min) 8.0, PO 30 mg enteric-coated capsule with 500 mg CA and 100 mg LLC, SC430, mean): 7.27 ng/mL
concentration at 10 min (30 mg, Tigecycline Plasma Concentration, Time (min) 10.0, PO 30 mg enteric-coated capsule with 500 mg CA and 100 mg LLC, SC430, mean): 2.58 ng/mL
concentration at 24 min [3]: 0 ng/mL
concentration at 24 min [4]: 0 ng/mL
concentration at 24 hr [1]: 0 ng/mL
concentration at 24 hr [2]: 0 ng/mL
Cmax (30 mg, target dose 30 mg, enterically coated capsule, excluding animal 5256, read-out: Observed Mean Cmax): 121 ng/mL
AUC(0-t) (30 mg, target dose 30 mg, enterically coated capsule, time scale adjusted to 4 hours, excluding animal 5256, read-out: Observed AUC(0-t)): 214 ng·h/mL
bioavailability (30 mg): 14.9%
AUC(0-t) (30 mg, read-out: AUC(0-t)): 367 ng·h/mL
Cmax (30 mg, read-out: Cmax): 121 ng/mL
bioavailability (45 mg, 45 mg Formulated (500 mg CA, 100 mg LLC) enteric coated capsule, Study 2 (SC430), mean (% CV)): 15.5%
AUC(0-t) (45 mg, 45 mg Formulated (500 mg CA, 100 mg LLC) enteric coated capsule, Study 2 (SC430), mean (% CV), read-out: AUC(0-t)): 574 ng·h/mL
Cmax (45 mg, 45 mg Formulated (500 mg CA, 100 mg LLC) enteric coated capsule, Study 2 (SC430), mean (% CV), read-out: Cmax): 177 ng/mL
